The record followed here is patent US7951802B2, “Use of 7-azaindoles in the inhibition of c-Jun N-terminal kinase” (Eisai R&D Management Co., Ltd., priority 2007, dated 2011).

Each structure is given as a SMILES string.

The test concerns the target JNK3 (Homo sapiens, UniProt P53779). In words: JNK3 SPA assay (phosphorylation of GST-c-Jun). The settings on record: 3.33 μM ATP, GST-c-Jun substrate, read-out: IC50 against JNK3. It is filed as biochemical. As to the method: JNK1, JNK2, JNK3—SPA Assay
JNK1, JNK2, JNK3—SPA Assay • 1. Compound is dissolved in DMSO to a convenient concentration and this is diluted in 10% DMSO to a five times concentrate of the desired starting concentration (frequently 1:100). • 2. 10 μl of 500 mM EDTA is added to alternative wells of the Opti-plate row, which will receive kinase reaction plus DMSO. This creates the negative control. • 3. For the JNK2 and JNK3 assay, compounds are prepared in six 2-fold dilutions with water and each concentration is tested in duplicate. For the JNK1 assay compounds are prepared in four 5-fold dilutions with water which are tested in triplicate. Controls are treated identically. • 4. 20 μl per well of each compound concentration is transferred to an Opti-plate, in duplicate. • 5. 30 μl (JNK2/3 SPA) or 50 μl (JNK1 SPA) of substrate solution (25 mM HEPES pH 7.5, 10 mM magnesium acetate with 3.33 μM ATP (JNK2/3) or 2 μM ATP (JNK1), approximately 7.5 kBq [γ-^33P] ATP, GST-c-Jun, in water) is added to each well. • 6. 50 μl (JNK2/3 SPA) or 30 μl (JNK1 SPA) of kinase solution (JNK in 25 mM HEPES pH 7.5, 10 mM Mg Acetate) is added to each well.
• 7. The plate is incubated for 30 minutes at room temperature. • 8. 100 μl of bead/stop solution is added to each well (5 mg/ml glutathione-PVT-SPA beads, 40 mM ATP in PBS). • 9. Plates are sealed and incubated for 30 minutes at room temperature, centrifuged for 10 minutes at 2500 g and counted. • 10. The IC50 values are calculated as the concentration of the compound being tested at which the phosphorylation of c-Jun is decreased to 50% of the control value.

JNK3, sequence (P53779 whole entry, species assumed): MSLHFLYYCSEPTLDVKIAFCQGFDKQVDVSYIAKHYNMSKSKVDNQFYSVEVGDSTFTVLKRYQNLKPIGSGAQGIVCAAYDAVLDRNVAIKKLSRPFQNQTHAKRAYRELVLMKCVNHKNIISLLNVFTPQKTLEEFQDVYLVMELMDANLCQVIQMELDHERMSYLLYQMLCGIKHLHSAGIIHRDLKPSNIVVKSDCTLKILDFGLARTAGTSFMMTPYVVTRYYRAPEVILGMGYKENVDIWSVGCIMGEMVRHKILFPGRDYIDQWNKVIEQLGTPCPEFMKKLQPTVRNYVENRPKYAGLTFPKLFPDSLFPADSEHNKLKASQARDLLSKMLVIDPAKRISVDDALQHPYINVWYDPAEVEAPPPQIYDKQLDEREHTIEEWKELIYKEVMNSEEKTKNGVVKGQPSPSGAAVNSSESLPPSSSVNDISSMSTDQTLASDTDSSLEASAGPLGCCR

For orientation: IC50 means the concentration needed to halve the response being measured. In the case of `CN1CCC(c2nc(-c3c[nH]c4ncc(C5=CCCC5)cc34)cs2)CC1` [Compound I-1, 5-Cyclopent-1-enyl-3-[2-(1-methyl-piperidin-4-yl)-thiazol-4-yl]-1H-pyrrolo[2,3-b]pyridine], the IC50 turned out to be 0.434 µM. `O=C(c1nc(-c2c[nH]c3ncc(C4=CCCC4)cc23)cs1)N1CCOCC1` [Compound I-3, [4-(5-Cyclopent-1-enyl-1H-pyrrolo[2,3-b]pyridin-3-yl)-thiazol-2-yl]-morpholin-4-yl-methanone]: the IC50 was 0.038 µM. As for `O=C(c1nc(-c2c[nH]c3ncc(C4=CCCC4)cc23)cs1)N1CCCCC1` [Compound I-4, [4-(5-Cyclopent-1-enyl-1H-pyrrolo[2,3-b]pyridin-3-yl)-thiazol-2-yl]-piperidin-1-yl-methanone], the IC50 was determined as 0.251 µM. As for `CN1CCN(C(=O)c2nc(-c3c[nH]c4ncc(C5=CCCC5)cc34)cs2)CC1` [Compound I-5, [4-(5-Cyclopent-1-enyl-1H-pyrrolo[2,3-b]pyridin-3-yl)-thiazol-2-yl]-(4-methyl-piperazin-1-yl)-methanone], the half-maximal inhibitory concentration (IC50) came out at 0.086 µM. Next, `O=C(c1nc(-c2c[nH]c3ncc(C4CCCCC4)cc23)cs1)N1CCCCC1` [Compound I-7, [4-(5-Cyclohexyl-1H-pyrrolo[2,3-b]pyridin-3-yl)-thiazol-2-yl]-piperidin-1-yl-methanone]: 0.238 µM; `O=C(c1nc(-c2c[nH]c3ncc(C4CCCCC4)cc23)cs1)N1CCOCC1` [Compound I-8, [4-(5-Cyclohexyl-1H-pyrrolo[2,3-b]pyridin-3-yl)-thiazol-2-yl]-morpholin-4-yl-methanone]: 0.111 µM. Next, `CN(C)C(=O)c1nc(-c2c[nH]c3ncc(C4CCCCC4)cc23)cs1` [Compound I-9, 4-[5-cyclohexyl-1H-pyrrolo[2,3-b]pyridin-3-yl]-thiazole-2-carboxylic acid dimethylamide]: 0.147 µM; `CN1CCN(C(=O)c2nc(-c3c[nH]c4ncc(C5CCCCC5)cc34)cs2)CC1` [Compound I-10, [4-(5-Cyclohexyl-1H-pyrrolo[2,3-b]pyridin-3-yl)-thiazol-2-yl]-(4-methyl-piperazin-1-yl)-methanone]: 0.063 µM. The same measure for `CN1CCC(c2nc(-c3c[nH]c4ncc(C5CCCCC5)cc34)cs2)CC1` [Compound I-11, 5-Cyclohexyl-3-[2-(1-methyl-piperidin-4-yl)-thiazol-4-yl]-1H-pyrrolo[2,3-b]pyridine]: 0.24 µM; for `CC1CC=C(c2cnc3[nH]cc(-c4csc(C(=O)N5CCOCC5)n4)c3c2)CC1` (stereo not shown) [Compound I-13, {4-[5-(4-Methyl-cyclohex-1-enyl)-1H-pyrrolo[2,3-b]pyridin-3-yl]-thiazol-2-yl}-morpholin-4-yl-methanone]: 0.151 µM; for `CC1CC=C(c2cnc3[nH]cc(-c4csc(C(=O)N5CCN(C)CC5)n4)c3c2)CC1` (stereo not shown) [Compound I-14, {4-[5-(4-Methyl-cyclohex-1-enyl)-1H-pyrrolo[2,3-b]pyridin-3-yl]-thiazol-2-yl}-(4-methyl-piperazin-1-yl)-methanone]: 0.105 µM. With `CC1(C)C=CC(c2cnc3[nH]cc(-c4csc(C(=O)N5CCOCC5)n4)c3c2)=CC1` [Compound I-16, {4-[5-(4,4-Dimethyl-cyclohexa-1,5-dienyl)-1H-pyrrolo[2,3-b]pyridin-3-yl]-thiazol-2-yl}-morpholin-4-yl-methanone], the IC50 came to 0.395 µM. Next, `CN1CCN(C(=O)c2nc(-c3c[nH]c4ncc(C5=CCC(C)(C)C=C5)cc34)cs2)CC1` [Compound I-17, {4-[5-(4,4-Dimethyl-cyclohexa-1,5-dienyl)-1H-pyrrolo[2,3-b]pyridin-3-yl]-thiazol-2-yl}-(4-methyl-piperazin-1-yl)-methanone]: 0.04 µM; `CC1CCC(c2cnc3[nH]cc(-c4csc(C(=O)N(C)C)n4)c3c2)CC1` (stereo not shown) [Compound I-19, 4-[5-(4-Methyl-cyclohexyl)-1H-pyrrolo[2,3-b]pyridin-3-yl]-thiazole-2-carboxylic acid dimethylamide]: 0.117 µM; `CC1CCC(c2cnc3[nH]cc(-c4csc(C(=O)N5CCCCC5)n4)c3c2)CC1` (stereo not shown) [Compound I-20, {4-[5-(4-Methyl-cyclohexyl)-1H-pyrrolo[2,3-b]pyridin-3-yl]-thiazol-2-yl}-piperidin-1-yl-methanone]: 0.138 µM. As for `CC1CCC(c2cnc3[nH]cc(-c4csc(C(=O)N5CCOCC5)n4)c3c2)CC1` (stereo not shown) [Compound I-21, {4-[5-(4-Methyl-cyclohexyl)-1H-pyrrolo[2,3-b]pyridin-3-yl]-thiazol-2-yl}-morpholin-4-yl-methanone], the IC50 was determined as 0.123 µM.

As to `CC1CCC(c2cnc3[nH]cc(-c4csc(C(=O)N5CCN(C)CC5)n4)c3c2)CC1` (stereo not shown) [Compound I-22, {4-[5-(4-Methyl-cyclohexyl)-1H-pyrrolo[2,3-b]pyridin-3-yl]-thiazol-2-yl}-(4-methyl-piperazin-1-yl)-methanone], the IC50 came to 0.016 µM. For the compound `CN1CCC(c2nc(-c3c[nH]c4ncc(C5CCC6(CC5)OCCO6)cc34)cs2)CC1` [Compound I-23, 5-(1,4-Dioxa-spiro[4.5]dec-8-yl)-3-[2-(1-methyl-piperidin-4-yl)-thiazol-4-yl]-1H-pyrrolo[2,3-b]pyridine], the IC50 came to 0.724 µM.

For the compound `C1=C(c2cnc3[nH]cc(-c4nccs4)c3c2)CCCC1` [Compound I-24, 2-(5-cyclohexenyl-1H-pyrrolo[2,3-b]pyridin-3-yl)thiazole], the IC50 worked out at 0.229 µM. The same measure for `O=C(c1nc(-c2c[nH]c3ncc(C4CCC5(CC4)OCCO5)cc23)cs1)N1CCCCC1` [Compound I-25, {4-[5-(1,4-Dioxa-spiro[4.5]dec-8-yl)-1H-pyrrolo[2,3-b]pyridin-3-yl]-thiazol-2-yl}-piperidin-1-yl-methanone]: 0.016 µM; for `c1csc(-c2c[nH]c3ncc(C4CCCCC4)cc23)n1` [Compound I-26, 2-(5-cyclohexyl-1H-pyrrolo[2,3-b]pyridin-3-yl)thiazole]: 0.324 µM.

Regarding `CCC1CC=C(c2cnc3[nH]cc(-c4csc(C(=O)N5CCOCC5)n4)c3c2)CC1` (stereo not shown) [Compound I-27, {4-[5-(4-Ethyl-cyclohex-1-enyl)-1H-pyrrolo[2,3-b]pyridin-3-yl]-thiazol-2-yl}-morpholin-4-yl-methanone], the IC50 came to 0.447 µM. For the compound `O=C(c1nc(-c2c[nH]c3ncc([C@H]4CC[C@@H](N5CCOCC5)CC4)cc23)cs1)N1CCCCC1` [Compound I-30, (4-(5-((1r,4r)-4-morpholinocyclohexyl)-1H-pyrrolo[2,3-b]pyridin-3-yl)thiazol-2-yl)(piperidin-1-yl)methanone], the IC50 was found to be 0.229 µM. Next, `O=C(c1nc(-c2c[nH]c3ncc([C@H]4CC[C@@H](N5CCOCC5)CC4)cc23)cs1)N1CCOCC1` [Compound I-31, morpholino(4-(5-((1s,4s)-4-morpholinocyclohexyl)-1H-pyrrolo[2,3-b]pyridin-3-yl)thiazol-2-yl)methanone]: 1.33 µM; `CN1CCN(C(=O)c2nc(-c3c[nH]c4ncc([C@H]5CC[C@@H](N6CCOCC6)CC5)cc34)cs2)CC1` [Compound I-32, (4-methylpiperazin-1-yl)(4-(5-((1s,4s)-4-morpholinocyclohexyl)-1H-pyrrolo[2,3-b]pyridin-3-yl)thiazol-2-yl)methanone]: 0.955 µM; `O=C(c1nc(-c2c[nH]c3ncc([C@H]4CC[C@H](N5CCOCC5)CC4)cc23)cs1)N1CCCCC1` [Compound I-33, (4-(5-((1r,4r)-4-morpholinocyclohexyl)-1H-pyrrolo[2,3-b]pyridin-3-yl)thiazol-2-yl)(piperidin-1-yl)methanone]: 0.198 µM. The same measure for `O=C(c1nc(-c2c[nH]c3ncc([C@H]4CC[C@H](N5CCOCC5)CC4)cc23)cs1)N1CCOCC1` [Compound I-34, morpholino(4-(5-((1r,4r)-4-morpholinocyclohexyl)-1H-pyrrolo[2,3-b]pyridin-3-yl)thiazol-2-yl)methanone]: 0.162 µM. Next, `c1ncc(-c2c[nH]c3ncc(C4CCCCC4)cc23)s1` [Compound I-48, 5-(5-cyclohexyl-1H-pyrrolo[2,3-b]pyridin-3-yl)thiazole]: 0.58 µM; `c1nc(-c2c[nH]c3ncc(C4CCCCC4)cc23)cs1` [Compound I-49, 4-(5-cyclohexyl-1H-pyrrolo[2,3-b]pyridin-3-yl)thiazole]: 0.089 µM. For `COc1nc(-c2c[nH]c3ncc(C4CCCCC4)cc23)cs1` [Compound I-50, 4-(5-cyclohexyl-1H-pyrrolo[2,3-b]pyridin-3-yl)-2-methoxythiazole], the IC50 was found to be 0.891 µM. Next, `Cc1csc(-c2c[nH]c3ncc(C4CCCCC4)cc23)n1` [Compound I-51, 2-(5-cyclohexyl-1H-pyrrolo[2,3-b]pyridin-3-yl)-4-methylthiazole]: 0.933 µM.
